Measurements taken from paper PMC12274739, “Differential substrate degradation by super-degron: EGFP in wild-type mouse cells, PD-1 requires CRBN humanization” (iScience, 2025).
Where “and” joins values, the source holds several entries; their conditions need not be identical. Equal entries are not always repeated. Where two headings read alike, the source gives them in different places.

Key:
[1] = tested on: EGFP-SD; type: cell-based, mouse; settings: for ratio of bottom, mouse vs human cell line: EGFP-SD; for bottom vs top, EGFP-SD: IBR up to 1 μM
[2] = tested on: EGFP-SD; type: cell-based, mouse; settings: for Plateau, EGFP-SD degradation: control = 1; for K, EGFP-SD degradation: one phase decay
[3] = tested on: PD-1-SD; assay: Exogenous PD-1-SD degradation in mESCs; type: cell-based, mouse
Method: The dotted lines show an isotype control without IBR. […] The dotted lines show an isotype control without IBR. […] The black lines show isotype control without IBR. […] Red lines show the boundary between positive and negative. […] (B–J) IBR or solvent (−) was added to cultured splenocytes (B–G) or mESCs (H–J). […] The concentration is 0.1 μM in the rightmost bar in each group, and the left neighbor is a step dilution of one-tenth. Intensities of anti-PD-1-FITC on CD4^+ and CD8^+ T cells were measured by flow cytometry, and the geometric means of fluorescence intensities (MFI) were calculated. The MFI of the isotype control of anti-PD-1-FITC was subtracted from each MFI of anti-PD-1-FITC. The dots indicate the results of the experiment for each of the three samples from different individuals.
To determine whether the same phenomenon occurs in non-T cells, exogenous PD-1 degradation was examined in mESCs transfected with PD-1-SD expression vectors (Figures 6H–6J and S6E). […] We hypothesized that the degradation efficiency of membrane-localized proteins might be reduced in mouse-type CRBNs. Therefore, we expressed EGFP-SDs with membrane-localized peptides attached to their N-termini in mESCs and added IBR. The degradation efficiency of EGFP-SD with membrane-localization peptide[32] […] Therefore, Pdcd1^SD/SD/Crbn^I391V/I391V mice were used for further analyses.

[4] = tested on: wild-type mESCs; assay: Proteome assay in wild-type mESCs with IBR; type: cell-based, mouse
Description: Only SD was able to efficiently degrade EGFP even in the wild-type mouse cell lines. IKZF1/3 and several neo-substrates for CRBN were degraded in human cells but not in mouse cells, most likely because of the different amino acids in CRBN. However, the combination of SD and IBR or MZG degraded target proteins in both mouse and human cells. […] These 17 proteins are suspected to be novel substrates (data not shown). […] Moreover, general thalidomide analogs and CRBN have no neo-substrates in mouse cell lines.[25]

[5] = design: method as in PMID 31125896; settings: BALB/c mice, oral; cited from earlier work
[6] = tested on: EGFP-SD; assay: Degradation of stably expressed EGFP-SD in rat ESCs
[7] = tested on: mouse PD-1-mCherry-IKZF minimal tag; assay: Degradation of IKZF minimal-tagged mouse PD-1-mCherry in Jurkat cells; type: cell-based, human; settings: 24 h
Description: To identify a tag that could efficiently knock down mouse PD-1, we connected various degron tags to the C-terminus of PD-1, including IKZF1/3, Sall4, ZFP91, and SD, and generated Jurkat human T cell lymphoma cell lines that stably expressed the mouse PD-1-degron tag (Figure 1A). As reported previously,[21]^,[22]^,[23] in mouse CRBN, the 391st amino acid corresponding to Val-388 of human CRBN is Ile, which causes a protrusion when a neo substrate binds to CRBN, resulting in a weaker affinity than in human CRBN (Figure 1B). Therefore, a human cell line was used because it was thought that mouse CRBN would not degrade SD by thalidomide analogs. […] We also analyzed the degradation of total proteins using mCherry.
Figure 1 Degradation of various degron-tagged mouse PD-1 in human Jurkat cell line (A) The protein construction of PD-1 tagged with mCherry and a degron tag. […] Valine 388 in human CRBN (red on the left) is replaced by isoleucine in mouse CRBN (gray on the right, over the red valine), causing a conflict between CRBN and IKZF1/3 (yellow ellipse). The stretch of the methyl group in isoleucine causing the conflict is indicated by a yellow arrow. (C) The amount of PD-1 and mCherry fused to IKZF minimal (blue, n = 1), IKZF full length (light blue, n = 1), Sall4 (orange, n = 1) or super degron (SD; red, n = 3) tags in Jurkat human T cell lymphomas 24 h after the addition of pomalidomide (POM) measured by flow cytometry. […] (C and D) The amount was standardized with the sample to which no reagent was added as 1. Concentrations of reagents were 0 (−), 5, 10, and 20 μM for IKZF minimal, IKZF full-length, and Sall4 tags and 0 (−), 0.5, 5 μM for SD tag. The dots indicate the results of the experiment for each of samples.

[8] = tested on: Ba/F3 mouse pro-B cell line; design: method as in PMID 38484051; settings: cited from earlier work
[9] = cited from earlier work
[10] = mouse wild-type cell lines, independent of IBR concentration

O=C1CC[C@H](N2Cc3c(OCc4ccc(CN5CCOCC5)cc4)cccc3C2=O)C(=O)N1 [IBR, iberdomide]
ratio of bottom, mouse vs human cell line ([1]; EL4 vs Jurkat): 1.804 | ratio of bottom, mouse vs human cell line ([1]; NIH3T3 vs HEK293): 3.605 | Bottom, EGFP-SD ([1]; EL4, stable): 0.04356 | DC50 ([1]; EL4, stable): 0.0755 nM | bottom vs top, EGFP-SD ([1]; EL4, stable): 0.057 | Bottom, EGFP-SD ([1]; NIH3T3, stable): 0.03706 | DC50 ([1]; NIH3T3, stable): 0.079 nM | bottom vs top, EGFP-SD ([1]; NIH3T3, stable): 0.049 | Bottom, EGFP-SD ([1]; mouse ESCs, stable): 0.02573 | DC50 ([1]; mouse ESCs, stable): 0.221 nM | bottom vs top, EGFP-SD ([1]; mouse ESCs, stable): 0.085 | level to which EGFP-SD was suppressed ([1]; mouse wild-type cell lines, IBR approximately 10^−2 μM to 10^−3 μM): 10% | Tau, EGFP-SD degradation ([2]; EL4, 0.01 µM IBR): 0.5057 | Plateau, EGFP-SD degradation ([2]; EL4, 0.01 µM IBR): 0.106 and 0.11 | K, EGFP-SD degradation ([2]; EL4, 0.01 µM IBR): 1.978 | Tau, EGFP-SD degradation ([2]; EL4, 0.1 µM IBR): 0.4779 | Plateau, EGFP-SD degradation ([2]; EL4, 0.1 µM IBR): 0.0948 | K, EGFP-SD degradation ([2]; EL4, 0.1 µM IBR): 2.093 | Tau, EGFP-SD degradation ([2]; EL4, 1 µM IBR): 0.4762 | Plateau, EGFP-SD degradation ([2]; EL4, 1 µM IBR): 0.09035 | K, EGFP-SD degradation ([2]; EL4, 1 µM IBR): 2.1 | Tau, EGFP-SD degradation ([2]; NIH/3T3, 0.01 µM IBR): 0.5217 | Plateau, EGFP-SD degradation ([2]; NIH/3T3, 0.01 µM IBR): 0.1206 and 0.12 | K, EGFP-SD degradation ([2]; NIH/3T3, 0.01 µM IBR): 1.917 | Tau, EGFP-SD degradation ([2]; NIH/3T3, 0.1 µM IBR): 0.4536 | Plateau, EGFP-SD degradation ([2]; NIH/3T3, 0.1 µM IBR): 0.09879 | K, EGFP-SD degradation ([2]; NIH/3T3, 0.1 µM IBR): 2.205 | Tau, EGFP-SD degradation ([2]; NIH/3T3, 1 µM IBR): 0.4422 | Plateau, EGFP-SD degradation ([2]; NIH/3T3, 1 µM IBR): 0.0887 | K, EGFP-SD degradation ([2]; NIH/3T3, 1 µM IBR): 2.261 | Tau, EGFP-SD degradation ([2]; mESCs, 0.01 µM IBR): 0.9013 | Plateau, EGFP-SD degradation ([2]; mESCs, 0.01 µM IBR): 0.1599 and 0.16 | K, EGFP-SD degradation ([2]; mESCs, 0.01 µM IBR): 1.11 | Tau, EGFP-SD degradation ([2]; mESCs, 0.1 µM IBR): 0.8006 | Plateau, EGFP-SD degradation ([2]; mESCs, 0.1 µM IBR): 0.1092 | K, EGFP-SD degradation ([2]; mESCs, 0.1 µM IBR): 1.249 | Tau, EGFP-SD degradation ([2]; mESCs, 1 µM IBR): 0.8069 | Plateau, EGFP-SD degradation ([2]; mESCs, 1 µM IBR): 0.09822 | K, EGFP-SD degradation ([2]; mESCs, 1 µM IBR): 1.239 | time after which EGFP-SD expression was minimal ([2]; mESCs, NIH/3T3, EL4): 6 h | time to halve the amount of EGFP-SD [2, 10]: 20 to 40 min | time to reduce EGFP-SD to 10% [2, 10]: approximately 3 h | PD-1 degradation ([3]; Crbn+/+ mESCs transfected with PD-1-SD): barely degraded | PD-1 degradation ([3]; CrbnI391V/I391V mESCs transfected with PD-1-SD): degraded | downregulation of 11 EGFP-bound candidate proteins ([4]; exogenously expressed in mESCs): none of them were downregulated by IBR | number of proteins with reduced expression ([4]; wild-type mESCs, proteome assay, data not shown): 17 | half-life (T1/2) [5]: 54 min | time of serum concentration peak [5]: 0.14 h | DC50 ([6]; read-out: DC50, EGFP-SD, stable): 0.14 nM | Bottom, EGFP-SD ([6]; stable): 0.0497 | bottom vs top, EGFP-SD ([6]; stable, IBR up to 1 μM): 0.083

Nc1cccc2c1C(=O)N(C1CCC(=O)NC1=O)C2=O (stereo not drawn) [POM, pomalidomide]
LogDC50, mCherry (mC) ([7]; mCherry): 0.04896 µM | Bottom, mCherry (mC) ([7]; mCherry, no reagent = 1): 0.8201 | LogDC50, PD-1 (FITC) ([7]; surface PD-1): 0.1515 µM | Bottom, PD-1 (FITC) ([7]; surface PD-1, no reagent = 1): 0.53 and 0.5295 | proteins reduced [8]: very few proteins | blood-brain barrier (BBB) passage [9]: passes through the BBB
